By IC50 is commonly meant the concentration at which inhibition is half-maximal.

The target of one test is T1, human ACSS2 protein (Homo sapiens, UniProt Q9NR19).
T1 construct: purchased OriGene Technologies, Inc
As to the kind of experiment: ACSS2 cell-free activity assay (pyrophosphatase-coupled, Biomol green). The following applies: 10 nM human ACSS2, 90 minutes at 37 C, absorbance at 620 nm; read-out: ACSS2 Biochemical IC50. In outline: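 10 nM human ACSS2 incubated 90 min at 37 C with compound, 300 μM ATP, 10 μM CoA, 5 mM NaAc in pH 7.5 Hepes buffer with 0.5 U/ml pyrophosphatase. Released phosphate detected with Biomol Green at 620 nm; IC50 by non-linear regression constrained to 0% and 100%.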

The target of a further test is T2, human ACSS1 protein (Homo sapiens, UniProt Q9NUB1).
T2 construct: purchased MyBioSource
T2 sequence (Q9NUB1 38-689): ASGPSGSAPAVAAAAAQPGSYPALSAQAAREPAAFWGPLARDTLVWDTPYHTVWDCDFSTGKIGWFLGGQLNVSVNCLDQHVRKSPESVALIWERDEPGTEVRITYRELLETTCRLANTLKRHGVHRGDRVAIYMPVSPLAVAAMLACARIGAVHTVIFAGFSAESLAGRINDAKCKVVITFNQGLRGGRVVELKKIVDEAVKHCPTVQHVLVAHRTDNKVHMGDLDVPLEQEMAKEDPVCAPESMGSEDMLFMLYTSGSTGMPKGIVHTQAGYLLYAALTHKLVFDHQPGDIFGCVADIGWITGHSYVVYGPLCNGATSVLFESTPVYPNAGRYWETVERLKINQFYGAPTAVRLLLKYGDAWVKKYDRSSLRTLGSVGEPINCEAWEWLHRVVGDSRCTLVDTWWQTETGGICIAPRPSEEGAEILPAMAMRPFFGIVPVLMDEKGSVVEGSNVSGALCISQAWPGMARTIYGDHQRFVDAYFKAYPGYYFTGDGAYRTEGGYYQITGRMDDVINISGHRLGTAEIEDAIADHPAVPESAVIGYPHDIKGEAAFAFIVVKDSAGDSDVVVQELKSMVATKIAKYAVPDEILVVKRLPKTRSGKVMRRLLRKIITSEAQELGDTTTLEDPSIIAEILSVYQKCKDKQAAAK
Briefly: ACSS1 cell-free activity assay (pyrophosphatase-coupled, Biomol green). Particulars: 5 nM human ACSS1, 30 minutes at room temperature, absorbance at 620 nm; for IC50: read-out: ACSS1 Biochemical IC50; call rule not given here. The class given is biochemical. In outline:
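5 nM human ACSS1 incubated 30 min at RT with compound in pH 7.5 Hepes buffer with 15 μM CoA, 5 mM acetate, 300 μM ATP, 2 mM MgCl2 and pyrophosphatase. Released phosphate detected with Biomol Green (30 min), absorbance 620 nm. IC50 from constrained non-linear regression.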

For test [1], the target named is T3, ACSS2 in MDA-MB-468 cells (Homo sapiens, UniProt Q9NR19).
T3 construct: endogenous in cells; host or cells: MDA-MB-468 cells, hypoxia (1% O2)
As to the kind of experiment: Cellular fatty-acid IC50: 13C-acetate incorporation into fatty acids (palmitate), LC-MS. The class given is cell-based. The following applies: hypoxic conditions (1% O2), 75% charcoal stripped serum, 5 hours, 13C-acetate into palmitate, read-out: Cellular Fatty-acid IC50 High Serum MDA468. In outline: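 MDA-MB-468 cells under hypoxia (1% O2) treated 5 h with compound (0.000512-1000 nM) in medium with 75% charcoal-stripped serum and 0.5 mM 13C-acetate. 13C-palmitate quantified by LC-MS (negative ion, RSIM). IC50 from inhibition versus no-compound control, background-subtracted, constrained 0–100% nonlinear fit.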

T1 sequence (Q9NR19 whole entry): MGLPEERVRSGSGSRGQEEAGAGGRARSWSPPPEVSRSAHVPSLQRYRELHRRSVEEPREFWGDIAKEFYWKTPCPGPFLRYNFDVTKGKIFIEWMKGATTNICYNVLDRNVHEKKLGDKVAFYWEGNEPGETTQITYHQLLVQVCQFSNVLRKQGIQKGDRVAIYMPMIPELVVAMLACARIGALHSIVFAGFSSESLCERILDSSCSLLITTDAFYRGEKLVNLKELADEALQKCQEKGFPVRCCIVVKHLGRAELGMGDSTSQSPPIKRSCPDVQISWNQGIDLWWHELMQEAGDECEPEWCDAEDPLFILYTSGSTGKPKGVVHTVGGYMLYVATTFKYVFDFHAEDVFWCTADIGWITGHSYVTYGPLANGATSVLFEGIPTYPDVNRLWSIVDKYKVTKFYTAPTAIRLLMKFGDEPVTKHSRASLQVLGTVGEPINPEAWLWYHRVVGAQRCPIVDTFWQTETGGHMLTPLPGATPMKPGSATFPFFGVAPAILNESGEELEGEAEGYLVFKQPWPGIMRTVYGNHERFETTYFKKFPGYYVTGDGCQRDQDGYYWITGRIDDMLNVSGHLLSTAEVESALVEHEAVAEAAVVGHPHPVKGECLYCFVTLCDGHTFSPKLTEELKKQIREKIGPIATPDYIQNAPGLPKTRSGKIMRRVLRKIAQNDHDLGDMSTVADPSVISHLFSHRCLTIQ
T3 sequence (Q9NR19 whole entry): as above

Consider `CNC(=O)c1cccc(NC(=O)c2c(C)[nH]c(-c3ccc(F)c(-c4c(C)cccc4C)c3)[n+]2[O-])c1` [Compound 177, 2-(6-fluoro-2′,6′-dimethyl-[1,1′-biphenyl]-3-yl)-5-methyl-4-((3-(methylcarbamoyl)phenyl)carbamoyl)-1H-imidazole 3-oxide], for which the IC50 was below 0.001 µM on human ACSS2 protein, above 0.03 µM at human ACSS1 protein and below 0.02 µM in test [1].
As for `CNC(=O)c1cccc(NC(=O)c2c(C)[nH]c(-c3ccnc(-c4c(C)cccc4C)c3)[n+]2[O-])c1` [Compound 178, 2-(2-(2,6-dimethylphenyl)pyridin-4-yl)-5-methyl-4-((3-(methylcarbamoyl)phenyl)carbamoyl)-1H-imidazole 3-oxide], the IC50 was below 0.001 µM on human ACSS2 protein, above 0.03 µM on human ACSS1 protein and below 0.02 µM in test [1].
On to `COc1ccc(-c2[nH]c(C)c(C(=O)Nc3cccc(S(=O)(=O)N(C)C)c3)[n+]2[O-])cc1-c1c(C)cccc1C` [Compound 179, 4-((3-(N,N-dimethylsulfamoyl)phenyl)carbamoyl)-2-(6-methoxy-2′,6′-dimethyl-[1,1′-biphenyl]-3-yl)-5-methyl-1H-imidazole 3-oxide], for which the IC50 is 0.001 to 0.03 µM on human ACSS2 protein and above 0.05 µM in test [1]. Also, the “ACSS1 Biochemical IC50 (nM)” value on human ACSS1 protein is “Inactive”.
Consider `CNC(=O)c1cccc(NC(=O)c2c(C)[nH]c(-c3cc(N)cc(-c4c(C)cccc4C)c3)[n+]2[O-])c1` [Compound 180, 2-(5-amino-2′,6′-dimethyl-[1,1′-biphenyl]-3-yl)-5-methyl-4-((3-(methylcarbamoyl)phenyl)carbamoyl)-1H-imidazole 3-oxide], for which the IC50 on human ACSS2 protein was below 0.001 µM; on human ACSS1 protein, above 0.03 µM; in test [1] it was below 0.02 µM.
`CNC(=O)c1cccc(NC(=O)c2c(C)[nH]c(-c3cc(NC)cc(-c4c(C)cccc4C)c3)[n+]2[O-])c1` [Compound 181, 2-(2′,6′-dimethyl-5-(methylamino)-[1,1′-biphenyl]-3-yl)-5-methyl-4-((3-(methylcarbamoyl)phenyl)carbamoyl)-1H-imidazole 3-oxide]: the IC50 is below 0.001 µM on human ACSS2 protein, above 0.03 µM on human ACSS1 protein and below 0.02 µM in test [1].
With `CNC(=O)c1cccc(NC(=O)c2c(C)[nH]c(-c3cc(-c4c(C)cccc4C)cc(N(C)C)c3)[n+]2[O-])c1` [Compound 182, 2-(5-(dimethylamino)-2′,6′-dimethyl-[1,1′-biphenyl]-3-yl)-5-methyl-4-((3-(methylcarbamoyl)phenyl)carbamoyl)-1H-imidazole 3-oxide], the IC50 at human ACSS2 protein is below 0.001 µM; in test [1], below 0.02 µM. The “ACSS1 Biochemical IC50 (nM)” value at human ACSS1 protein was “Inactive”.
On to `Cc1cccc(C)c1-c1cc(OCCN2CCCC2)cc(-c2[nH]c(C)c(C(=O)Nc3cccc(C(F)(F)C4CC4)c3)[n+]2[O-])c1` [Compound 183, 4-((3-(cyclopropyldifluoromethyl)phenyl)carbamoyl)-2-(2′,6′-dimethyl-5-(2-(pyrrolidin-1-yl)ethoxy)-[1,1′-biphenyl]-3-yl)-5-methyl-1H-imidazole 3-oxide], for which the IC50 at human ACSS2 protein was below 0.001 µM; in test [1], above 0.05 µM. Also, the “ACSS1 Biochemical IC50 (nM)” value on human ACSS1 protein is recorded as “Inactive”.
On to `CNC(=O)c1cccc(NC(=O)c2c(C)[nH]c(-c3ccc(OC)c(-c4c(F)cccc4F)c3)[n+]2[O-])c1` [Compound 184, 2-(2′,6′-difluoro-6-methoxy-[1,1′-biphenyl]-3-yl)-5-methyl-4-((3-(methylcarbamoyl)phenyl)carbamoyl)-1H-imidazole 3-oxide], for which the IC50 at human ACSS2 protein is below 0.001 µM; in test [1], below 0.02 µM. The “ACSS1 Biochemical IC50 (nM)” value on human ACSS1 protein is “Inactive”.
Take `CNC(=O)c1cccc(NC(=O)c2c(C)[nH]c(-c3ccc(OC)c(-c4c(C)cc(F)cc4C)c3)[n+]2[O-])c1` [Compound 185, 2-(4′-fluoro-6-methoxy-2′,6′-dimethyl-[1,1′-biphenyl]-3-yl)-5-methyl-4-((3-(methylcarbamoyl)phenyl)carbamoyl)-1H-imidazole 3-oxide]: the figures for the IC50 (at human ACSS2 protein; on human ACSS1 protein; in test [1]) were below 0.001 µM, above 0.03 µM and below 0.02 µM, respectively.
Take `CNC(=O)c1cccc(NC(=O)c2c(C)[nH]c(-c3ccc(OC)c(-c4c(C)cccc4C)n3)[n+]2[O-])c1` [Compound 186, 2-(6-(2,6-dimethylphenyl)-5-methoxypyridin-2-yl)-5-methyl-4-((3-(methylcarbamoyl)phenyl)carbamoyl)-1H-imidazole 3-oxide]: the IC50 on human ACSS2 protein was below 0.001 µM; in test [1], below 0.02 µM. For the same compound, at human ACSS1 protein, the “ACSS1 Biochemical IC50 (nM)” value is listed as “Inactive”.
As to `CNS(=O)(=O)c1cccc(NC(=O)c2c(C)[nH]c(-c3ccc(OC)c(-c4c(C)cccc4C)c3)[n+]2[O-])c1` [Compound 187, 2-(6-methoxy-2′,6′-dimethyl-[1,1′-biphenyl]-3-yl)-5-methyl-4-((3-(N-methylsulfamoyl)phenyl)carbamoyl)-1H-imidazole 3-oxide], the values for the IC50 (on human ACSS2 protein; in test [1]) were below 0.001 µM and 0.02 to 0.05 µM, respectively. The “ACSS1 Biochemical IC50 (nM)” value at human ACSS1 protein is listed as “Inactive”.
`COc1ccc(-c2[nH]c(C)c(C(=O)Nc3cccc(-c4ncon4)c3)[n+]2[O-])cc1-c1c(C)cccc1C` [Compound 190, 4-((3-(1,2,4-oxadiazol-3-yl)phenyl)carbamoyl)-2-(6-methoxy-2′,6′-dimethyl-[1,1′-biphenyl]-3-yl)-5-methyl-1H-imidazole 3-oxide]: the IC50 on human ACSS2 protein is below 0.001 µM; in test [1], below 0.02 µM. Besides, at human ACSS1 protein, the “ACSS1 Biochemical IC50 (nM)” value is recorded as “Inactive”.
In the case of `CCC(F)(F)c1cccc(NC(=O)c2c(C)[nH]c(-c3cc(CCN4CCOCC4)c(OC)c(-c4c(C)cccc4C)c3)[n+]2[O-])c1` [Compound 192, 4-((3-(1,1-difluoropropyl)phenyl)carbamoyl)-2-(6-methoxy-2′,6′-dimethyl-5-(2-morpholinoethyl)-[1,1′-biphenyl]-3-yl)-5-methyl-1H-imidazole 3-oxide], the results for the IC50 (at human ACSS2 protein; on human ACSS1 protein; in test [1]) were below 0.001 µM, above 0.03 µM and 0.02 to 0.05 µM, respectively.
On to `CNC(=S)c1cccc(NC(=O)c2c(C)[nH]c(-c3ccc(OC)c(-c4c(C)cccc4C)c3)[n+]2[O-])c1` [Compound 196, 2-(6-methoxy-2′,6′-dimethyl-[1,1′-biphenyl]-3-yl)-5-methyl-4-((3-(methylcarbamothioyl)phenyl)carbamoyl)-1H-imidazole 3-oxide], for which the IC50 at human ACSS2 protein was below 0.001 µM; in test [1], below 0.02 µM. Also, the “ACSS1 Biochemical IC50 (nM)” value at human ACSS1 protein was “Inactive”.
For `Cc1cccc(C)c1-c1cc(-c2[nH]c(C)c(C(=O)Nc3cccc(C(F)(F)C4CC4)c3)[n+]2[O-])ccc1Cl` [Compound 197, 2-(6-chloro-2′,6′-dimethyl-[1,1′-biphenyl]-3-yl)-4-((3-(cyclopropyldifluoromethyl)phenyl)carbamoyl)-5-methyl-1H-imidazole 3-oxide], the IC50 is below 0.001 µM at human ACSS2 protein and above 0.05 µM in test [1]. The “ACSS1 Biochemical IC50 (nM)” value at human ACSS1 protein is on record as “Inactive”.
As to `COc1cc(Cl)c(-c2[nH]c(C)c(C(=O)Nc3cccc(C(F)(F)C4CC4)c3)[n+]2[O-])cc1-c1c(C)cccc1C` [Compound 198, 2-(4-chloro-6-methoxy-2′,6′-dimethyl-[1,1′-biphenyl]-3-yl)-4-((3-(cyclopropyldifluoromethyl)phenyl)carbamoyl)-5-methyl-1H-imidazole 3-oxide], the values for the IC50 (at human ACSS2 protein; in test [1]) were below 0.001 µM and above 0.05 µM, respectively. For the same compound, the “ACSS1 Biochemical IC50 (nM)” value on human ACSS1 protein is on record as “Inactive”.
